Measured values as given in patent US12528767B2, “HDAC6 inhibitors and uses thereof” (Eikonizo Therapeutics, Inc., priority 2019, dated 2026).

Tests used:
[1] = target: Full length Human HDAC3 co-expressed with Human NCOR2 (Homo sapiens, UniProt O15379)
[2] = test system: tubulin acetylation (acTubK40) in undifferentiated SH-SY5Y cells; test: Tubulin acetylation in cells (Western immunoblot); assay type: cell-based; settings: Homo sapiens, 4 hours, acetylTubulin/Tubulin ratio
Procedure: (§1) Compound EC50 Determination for Tubulin- and Histone H3 Acetylation in Cells
(§2) Estimation of the EC50 for exemplary compounds to alter target protein acetylation in undifferentiated SH-SY5Y cells was performed using standard Western immunoblotting methods. […] SH-SY5Y cells were grown to 90% confluency on sterile cell growth plates. 10 mM compound stocks prepared in DMSO and two-fold serial dilutions were prepared from the stock and applied to cells to achieve a 12-point concentration range in cell media from an upper limit of 10 μM to a lower limit of DMSO [zero compound].
(§3) Cells were incubated under normal growth conditions (37° C., 5% CO2) in the presence of compound for 4 hours, then media was aspirated and cells were rinsed two times with 1×DPBS with calcium and magnesium warmed to 37° C. Cells were frozen directly on the plates on a bed of dry ice for 5 min, then stored at −80° C. until protein extraction.
(§4) Protein extraction was performed in RIPA buffer (50 mM Tris-HCL pH 8.0, 150 mM NaCl, 0.5% sodium deoxycholate, 0.1% sodium dodecyl sulfate, 1% NP-40) supplemented with Pierce protease inhibitor mini tables (Thermofisher cat #A32953) exactly as described by the manufacturer. After thawing the plate on a bed of wet ice for 10 minutes, lysis buffer was added to each well (e.g. 100 μL per well of a 24-well plate) and cells scraped from the bottom of each well. Lysates were then sonicated over ice (40% power, 30 pulses of 1 second on, 2 seconds off), centrifuged at 16,000 g for 10 min at 4° C., and the clarified supernatant saved. Protein concentration was determined by BCA assay and at least 3 μg prepared per lane by combining lysate supernatant aliquot with 1/3 total volume of 3× gel loading buffer containing DTT (NEB Cat. #B7703S), heating for 5 minutes at 95° C., briefly centrifuging and then loading on an SDS-PAGE gel.
(§5) Proteins were resolved on a 4-20% Tris-Glycine gel and transferred to PVDF membrane using an iBlot2 dry transfer system. The membrane was then blocked for at least 30 minutes at room temperature in TBST containing 5% milk or 5% bovine serum albumin, then incubated overnight at 4° C. with a single primary antibody from the following table:
(§6) Following primary antibody incubation, membranes were washed, incubated in secondary antibody, washed and incubated in ECL prime western blotting detection reagent (Amersham #RPN223) with membrane exposure and ECL signal capture in a LI-COR Odyssey Imaging system. […] Subsequent densitometry of immunoreactive bands was performed using the ImageStudio software and Microsoft Excel resulting in the following ratios: acetylTubulin/Tubulin and acetyl histone H3K9/histone H3. Raw ratios were uploaded to GraphPad Prism v7.0 with EC50 values modeled using the variable slope equation for log-transformed data [log(agonist) vs response in Prism].

Full length Human HDAC5 = Full length Human HDAC5 (Homo sapiens, UniProt Q9UQL6)
[3] = target: Human HDAC9 a.a. 604-1066 (Homo sapiens, UniProt Q9UKV0)
[4] = test system: histone H3 acetylation (acH3K9) in undifferentiated SH-SY5Y cells; test: Histone H3 acetylation in cells (Western immunoblot); assay type: cell-based; settings: Homo sapiens, 4 hours, acetyl histone H3K9/histone H3 ratio
Procedure: as §1, §2, §3, §4, §5, §6

Full length Human HDAC1 = Full length Human HDAC1 (Homo sapiens, UniProt Q13547)
Full length Human HDAC11 = target: T1, Full length Human HDAC11 (Homo sapiens, UniProt Q96DB2)
T1 sequence (Q96DB2 1-347): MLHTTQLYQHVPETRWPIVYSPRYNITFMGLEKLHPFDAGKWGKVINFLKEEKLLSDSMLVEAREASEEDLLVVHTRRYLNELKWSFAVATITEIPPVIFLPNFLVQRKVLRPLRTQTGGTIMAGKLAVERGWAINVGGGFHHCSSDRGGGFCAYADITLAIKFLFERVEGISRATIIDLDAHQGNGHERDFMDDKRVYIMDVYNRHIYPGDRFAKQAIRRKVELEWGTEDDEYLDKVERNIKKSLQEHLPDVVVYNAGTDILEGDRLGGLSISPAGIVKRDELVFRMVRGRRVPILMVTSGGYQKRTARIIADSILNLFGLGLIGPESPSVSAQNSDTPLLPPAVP

Sequence of Full length Human HDAC3 co-expressed with Human NCOR2 (O15379 whole entry): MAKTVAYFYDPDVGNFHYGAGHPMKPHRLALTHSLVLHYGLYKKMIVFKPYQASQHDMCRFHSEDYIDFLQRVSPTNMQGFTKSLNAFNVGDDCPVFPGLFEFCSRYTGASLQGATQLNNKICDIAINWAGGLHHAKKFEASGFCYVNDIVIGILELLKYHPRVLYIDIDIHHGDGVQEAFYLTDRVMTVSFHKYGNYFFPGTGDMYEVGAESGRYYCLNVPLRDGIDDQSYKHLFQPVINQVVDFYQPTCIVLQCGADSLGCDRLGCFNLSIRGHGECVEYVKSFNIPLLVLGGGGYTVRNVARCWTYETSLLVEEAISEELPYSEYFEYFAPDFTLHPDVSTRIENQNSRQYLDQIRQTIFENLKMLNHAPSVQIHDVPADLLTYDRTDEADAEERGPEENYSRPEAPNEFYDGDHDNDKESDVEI
Sequence of Full length Human HDAC3 co-expressed with Human NCOR2 (Q9Y618 395-489 partner limits assumed): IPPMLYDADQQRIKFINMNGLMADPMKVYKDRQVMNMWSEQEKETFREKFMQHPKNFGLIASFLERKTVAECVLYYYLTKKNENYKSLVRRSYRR
Sequence of Full length Human HDAC1 (Q13547 whole entry): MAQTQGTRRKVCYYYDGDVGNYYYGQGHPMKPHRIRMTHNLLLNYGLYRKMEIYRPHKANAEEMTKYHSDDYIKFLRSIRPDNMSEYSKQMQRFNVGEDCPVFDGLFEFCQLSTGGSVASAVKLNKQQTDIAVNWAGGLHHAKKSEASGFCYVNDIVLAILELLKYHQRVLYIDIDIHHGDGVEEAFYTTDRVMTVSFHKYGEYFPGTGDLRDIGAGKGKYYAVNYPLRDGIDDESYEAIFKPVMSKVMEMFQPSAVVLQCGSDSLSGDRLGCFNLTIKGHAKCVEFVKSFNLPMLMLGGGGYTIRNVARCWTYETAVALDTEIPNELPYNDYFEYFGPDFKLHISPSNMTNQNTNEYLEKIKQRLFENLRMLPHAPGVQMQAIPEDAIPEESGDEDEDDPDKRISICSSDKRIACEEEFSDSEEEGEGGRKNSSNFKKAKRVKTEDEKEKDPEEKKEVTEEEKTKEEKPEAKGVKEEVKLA
Sequence of Full length Human HDAC5 (Q9UQL6 whole entry): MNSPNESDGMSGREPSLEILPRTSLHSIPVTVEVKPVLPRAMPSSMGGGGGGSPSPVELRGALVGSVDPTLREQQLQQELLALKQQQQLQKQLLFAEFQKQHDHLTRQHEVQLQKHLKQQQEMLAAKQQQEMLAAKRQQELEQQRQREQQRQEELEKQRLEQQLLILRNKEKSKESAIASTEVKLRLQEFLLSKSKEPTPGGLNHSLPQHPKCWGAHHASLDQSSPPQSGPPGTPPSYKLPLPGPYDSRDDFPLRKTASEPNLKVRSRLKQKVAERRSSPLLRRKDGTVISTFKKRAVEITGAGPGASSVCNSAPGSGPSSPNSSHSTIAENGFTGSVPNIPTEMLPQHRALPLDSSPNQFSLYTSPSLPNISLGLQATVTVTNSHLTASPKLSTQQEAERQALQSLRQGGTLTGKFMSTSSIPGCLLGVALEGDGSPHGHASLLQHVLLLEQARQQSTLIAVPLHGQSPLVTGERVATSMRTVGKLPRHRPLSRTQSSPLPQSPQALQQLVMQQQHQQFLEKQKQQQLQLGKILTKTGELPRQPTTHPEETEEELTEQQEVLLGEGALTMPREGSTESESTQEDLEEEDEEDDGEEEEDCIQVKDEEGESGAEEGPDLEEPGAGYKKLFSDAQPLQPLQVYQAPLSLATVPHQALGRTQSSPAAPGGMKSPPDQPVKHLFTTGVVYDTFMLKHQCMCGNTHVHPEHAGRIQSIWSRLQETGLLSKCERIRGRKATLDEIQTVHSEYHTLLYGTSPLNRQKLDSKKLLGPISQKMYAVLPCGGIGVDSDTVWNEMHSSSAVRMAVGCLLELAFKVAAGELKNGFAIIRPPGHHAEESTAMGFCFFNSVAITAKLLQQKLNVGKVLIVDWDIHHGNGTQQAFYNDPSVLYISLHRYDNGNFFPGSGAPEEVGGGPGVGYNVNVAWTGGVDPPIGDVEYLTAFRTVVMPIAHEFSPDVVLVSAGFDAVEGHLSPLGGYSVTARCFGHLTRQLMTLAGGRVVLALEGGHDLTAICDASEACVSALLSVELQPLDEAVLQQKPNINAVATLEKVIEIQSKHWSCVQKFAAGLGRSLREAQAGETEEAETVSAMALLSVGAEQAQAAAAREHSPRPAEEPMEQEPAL
Sequence of Human HDAC9 a.a. 604-1066 (Q9UKV0 604-1066 isoform Q9UKV0-5): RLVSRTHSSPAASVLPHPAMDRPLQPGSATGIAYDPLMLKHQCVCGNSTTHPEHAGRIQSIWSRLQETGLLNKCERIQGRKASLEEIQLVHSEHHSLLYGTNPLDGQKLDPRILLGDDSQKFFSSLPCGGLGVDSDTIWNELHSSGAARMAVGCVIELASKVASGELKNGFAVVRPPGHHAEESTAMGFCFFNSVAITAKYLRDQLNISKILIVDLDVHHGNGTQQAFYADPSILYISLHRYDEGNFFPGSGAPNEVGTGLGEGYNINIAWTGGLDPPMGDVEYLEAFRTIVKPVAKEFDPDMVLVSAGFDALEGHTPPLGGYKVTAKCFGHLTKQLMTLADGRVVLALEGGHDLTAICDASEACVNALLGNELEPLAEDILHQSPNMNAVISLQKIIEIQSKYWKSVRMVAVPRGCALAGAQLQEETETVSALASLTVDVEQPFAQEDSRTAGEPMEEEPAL

Compound: O=C(NO)c1cc(F)c2c(c1)CCN(CC13CC4CC(CC(C4)C1)C3)C2 [compound 34]
- IC50 [1]: 1 to 10 µM
- EC50 [2]: 2.1 µM
- IC50 (Full length Human HDAC5): 10 to 100 µM
- IC50 [3]: 10 to 100 µM
- EC50 [4]: > 10 µM
- IC50 (Full length Human HDAC1): 10 to 100 µM
- IC50 (Full length Human HDAC11): 1 to 10 µM

Compound: O=C(NO)c1ccc(CN2C[C@@H]3CC[C@H]2CO3)c(F)c1 (single isomer, unassigned) [compound 172]
- IC50 [1]: 10 to 100 µM
- IC50 (Full length Human HDAC5): 10 to 100 µM
- IC50 [3]: 10 to 100 µM
- IC50 (Full length Human HDAC1): > 100 µM
- IC50 (Full length Human HDAC11): 0.001 to 0.1 µM

Compound: O=C(NO)c1ccc(CN2CC3CCC(C2)O3)c(F)c1 [compound 53]
- IC50 [1]: 1 to 10 µM
- EC50 [2]: 0.2 µM
- IC50 (Full length Human HDAC5): 1 to 10 µM
- IC50 [3]: 0.1 to 1 µM
- EC50 [4]: > 10 µM
- IC50 (Full length Human HDAC1): 1 to 10 µM
- IC50 (Full length Human HDAC11): 10 to 100 µM

Compound: O=C(NO)c1cc(F)c2c(c1)C[C@H]1CCCCN1C2 (single isomer, unassigned) [compound 94]
- IC50 [1]: 10 to 100 µM
- IC50 (Full length Human HDAC5): 10 to 100 µM
- IC50 [3]: 1 to 10 µM
- IC50 (Full length Human HDAC1): > 100 µM
- IC50 (Full length Human HDAC11): > 100 µM

Compound: O=C(NO)c1cc(F)c2c(c1)CCN1CCC[C@@H]21 (single isomer, unassigned) [compound 79]
- IC50 [1]: 1 to 10 µM
- EC50 [2]: 0.44 µM
- IC50 (Full length Human HDAC5): 1 to 10 µM
- IC50 [3]: 0.1 to 1 µM
- EC50 [4]: > 10 µM
- IC50 (Full length Human HDAC1): 1 to 10 µM
- IC50 (Full length Human HDAC11): > 100 µM

Compound: O=C(NO)c1cc(F)c2c(c1)CCN(Cc1ccccc1)C2 [compound 32]
- EC50 [2]: 0.3 µM
- EC50 [4]: > 10 µM

Compound: O=C(NO)c1ccc2c(c1)CN1CCCCN1C2 [compound 106, N-hydroxy-1,2,3,4,6,11-hexahydropyridazino[1,2-b]phthalazine-8-carboxamide]
- IC50 [1]: 1 to 10 µM
- IC50 (Full length Human HDAC5): > 100 µM
- IC50 [3]: 10 to 100 µM
- IC50 (Full length Human HDAC1): 10 to 100 µM
- IC50 (Full length Human HDAC11): 10 to 100 µM

Compound: O=C(NO)c1ccc(CN2CC3CCC2CO3)c(F)c1 (stereo not shown) [compound 58]
- IC50 [1]: 1 to 10 µM
- EC50 [2]: 2.6 µM
- IC50 (Full length Human HDAC5): 1 to 10 µM
- IC50 [3]: 1 to 10 µM
- EC50 [4]: 2.5 µM
- IC50 (Full length Human HDAC1): 10 to 100 µM
- IC50 (Full length Human HDAC11): > 100 µM

Compound: O=C(NO)c1ccc(CN2C[C@H]3CC[C@@H]2CO3)c(F)c1 (single isomer, unassigned) [compound 173]
- IC50 [1]: 1 to 10 µM
- IC50 (Full length Human HDAC5): 10 to 100 µM
- IC50 [3]: 1 to 10 µM
- IC50 (Full length Human HDAC1): 10 to 100 µM
- IC50 (Full length Human HDAC11): 10 to 100 µM

Compound: O=C(NO)c1cc(F)c2c(c1)CCN(C1CC3(CCCCC3)C1)C2 [compound 16]
- IC50 [1]: 10 to 100 µM
- EC50 [2]: 2.9 µM
- IC50 (Full length Human HDAC5): > 100 µM
- IC50 [3]: > 100 µM
- EC50 [4]: > 10 µM
- IC50 (Full length Human HDAC1): 10 to 100 µM
- IC50 (Full length Human HDAC11): 1 to 10 µM

Compound: O=C(NO)c1ccc(CN2CCC3(CCCCC3)C2)c(F)c1 [compound 75, 4-((2-Azaspiro[4.5]decan-2-yl)methyl)-3-fluoro-N-hydroxybenzamide]
- EC50 [2]: 1.4 µM
- EC50 [4]: > 10 µM

Compound: O=C(NO)c1cc(F)c2c(c1)C[C@@H]1CCCCN1C2 (single isomer, unassigned) [compound 93]
- IC50 [1]: 1 to 10 µM
- IC50 (Full length Human HDAC5): 1 to 10 µM
- IC50 [3]: 1 to 10 µM
- IC50 (Full length Human HDAC1): 10 to 100 µM
- IC50 (Full length Human HDAC11): 1 to 10 µM
